# Results as given in a melting point compilation (Tetko et al.).
row,melting point [°C],Compound
1,230,O=C(O)c1cc(Br)c(Br)s1
2,210 to 211,Cc1ncc(C(=O)O)c(-c2ccccc2)n1
3,155 to 156,Cc1c(C(=O)O)nnn1-c1cccc(C(F)(F)F)c1
4,88 to 102,Cc1cc2ccccc2cc1CBr
5,138,O=c1n(CCO)c(=O)n(CCO)c(=O)n1CCO
6,168,CC(=O)OC1(C(C)=O)CCC2C3C=C(Cl)C4=CC(=O)C=CC4(C)C3CCC21C (stereo unspecified)
7,100,Nc1cc(C(F)(F)F)ccc1[N+](=O)[O-]
8,8,CCCS(=O)(=O)O
9,99,CCn1c2ccccc2c2cc(N)ccc21
10,160,COc1ccc2c(=O)c3ccccc3oc2c1CN1CCCCC1
11,161,CC(=O)N(Nc1ccc(-c2ccc([N+](=O)[O-])cc2)cc1)c1ccccc1
12,169,CCOC(=O)c1nn(-c2ccc(C)cc2)c(C)c1C(=O)c1noc(-c2ccccc2)c1S(=O)(=O)c1ccccc1
13,95,CNc1ccc(C(=O)OC)cc1
14,49 to 56,O=C1c2ccccc2C(=O)N1CCCCCCCCBr
15,233,Nc1ccn(C2OC(COP(=O)(O)O)C(O)C2O)c(=O)n1 (stereo unspecified)
16,200,COC(=O)C=Cc1ccc([N+](=O)[O-])c(C=CC(=O)OC)c1
17,58,COCC(=NOCC(=O)OC)c1cc(Oc2ccc(C(F)(F)F)cc2Cl)ccc1[N+](=O)[O-]
18,121,Cc1n[nH]c(C)c1Br
19,197 to 204,NCCCC(=O)O
20,224,O=C(Nc1cccc2ccccc12)C(C(F)(F)F)C(F)(F)F
21,73,COc1ccsc1CN(C(=O)CCl)c1c(C)cccc1C
22,174 to 175,Cc1cc(C(=O)O)ccc1O
23,158 to 159,O=C(Cl)c1ccc(N2CCOCC2)nc1

row,melting point [°C],Compound
1,37.5 to 39,O=C(Cl)c1ccc(OC2CCOCC2)cc1
2,98 to 101,O=C(O)c1cccc(N2CCCCC2)n1
3,139 to 141,CCOc1cc([N+](=O)[O-])c(OCC)cc1N1CCOCC1
4,91 to 93,CCCCCCCCc1ccc(C(=O)CCC(=O)O)cc1
5,202,N#CC1=C(N)Oc2c(c(C(F)(F)F)nn2-c2ccccc2)C1c1ccc(F)cc1 (stereo unspecified)
6,147,O=Cc1cc(F)c(O)cc1F
7,255,Oc1cccc(O)c1Cc1c(O)cccc1O
8,47.5,Cc1ccc(I)cc1N
9,273 to 276,Brc1n[nH]c2nc3ccccc3nc12
10,128,CCS(=O)(=O)CCn1c([N+](=O)[O-])cnc1C
11,139,Oc1cc(C(F)(F)F)nc2c(Cl)cccc12
12,309 to 310,O=C(O)c1cnc(O)nc1-c1ccncc1
13,111,Nc1cc([N+](=O)[O-])c(/C=C/c2ccccc2)cc1/C=C/c1ccccc1
14,150 to 155,CCOC(=O)c1cc2cc([N+](=O)[O-])ccc2o1
15,161,CCCC(/C=C1\C(=O)C2(C)CCC1C2(C)C)(/C=C1\C(=O)C2(C)CCC1C2(C)C)C(=O)OCC (stereo unspecified)
16,80 to 82,O=S(=O)(Cl)c1ccc(-c2cnco2)s1
17,151,O=C(O)c1ccc(C(F)(F)F)cc1C(=O)O
18,102,CCNc1nc(Cl)nc(N(CC)CC)n1
19,117 to 133,CCCCC(=O)c1ccc2c(c1)OCCOCCOc1cc(C(=O)CCCC)ccc1OCCOCCO2
20,78,Cc1ccc(-c2ccc(/C=C3\C=C(CC(C)C)OC3=O)o2)cc1
21,104 to 108,O=C(O)c1cc(F)cc(C(F)(F)F)c1
22,35,Cc1ccc([N+](=O)[O-])cc1F
23,111 to 114,O=C(O)Cc1c(F)ccc(F)c1F

row,melting point [°C],Compound
1,87,c1coc(C2CNCCN2)c1 (stereo unspecified)
2,297 to 298,O=C(O)c1cc(O)c2cccc(O)c2n1
3,182,ON=Cc1c[nH]cn1
4,95.5 to 97.5,CC1(C)OC2COC3(CO)OC(C)(C)OC3C2O1 (stereo unspecified)
5,73,Clc1ccc(-c2c(Cl)cc(Cl)c(Cl)c2Cl)c(Cl)c1
6,180,CCOC(=O)C1=C(C)NC(C)=C(C(=O)OCC)C1
7,40,Cc1c(Br)cccc1[N+](=O)[O-]
8,167,CN(N=O)C1=CC(=O)C2(C)CCC1C2(C)C (stereo unspecified)
9,85.3,N=C1NCCS1
10,99 to 100,OC1CCN(c2nccc(C(F)(F)F)n2)CC1
11,115,NNc1cc(Cl)cc(Cl)c1
12,116,O=C1c2ccccc2C(=O)N1Cc1ccccc1
13,199,O=C(O)c1ccccc1/N=N/C1SC(=S)N(c2ccccc2)C1=O (stereo unspecified)
14,173 to 177,"CCC12CCCN3CCc4c(n(c5ccccc45)C(=O)C1)C32 (single isomer, unassigned; (-))"
15,111 to 113,CCOC(=O)c1c(C)nsc1N
16,20,CCCN(CCC)C(=O)COC(=O)c1ccccc1
17,219,O=C(O)c1ccc(-n2nc(C(=O)c3cccs3)s/c2=N\C(=O)c2ccccc2)cc1
18,49,O=C(O)Cc1ccc(F)c(F)c1
19,128,O=C(O)COc1ccccc1O
20,128,O=C(CC(C(=O)c1ccccc1)c1ccccc1)c1ccccc1 (stereo unspecified)
21,163 to 166,CC(C)(C)OC(=O)N1CCN(C(=O)OCC2c3ccccc3-c3ccccc32)C(C(=O)O)C1 (stereo unspecified)
22,137,CC=C1CCC2C3CC=C4CC(OC(C)=O)CCC4(C)C3CCC12C (stereo unspecified)
23,300,Cc1ccncc1S(=O)(=O)O

row,melting point [°C],Compound
1,94 to 96,CSc1nc(=O)n(Cc2ccccc2)c2c1CCC2
2,191,Cc1ccc(C(=O)C2=NOC3C(=O)N(c4cc(Cl)ccc4Cl)C(=O)C23)cc1 (stereo unspecified)
3,170,CC(=O)n1nc2oc3ccccc3cc-2c1=O
4,117 to 121,CC(C)(C)OC(=O)NC(C)(C)C(=O)O
5,139,CC(=O)Nc1ccc(C(C)=O)c(C)c1
6,89,CCN(CC)CN1C(=O)/C(=C\c2ccc(Cl)cc2)SC1=S
7,-26.2,Cc1csc(C)c1C
8,241 to 243,CC(CN(CC(=O)O)CC(=O)O)N(CC(=O)O)CC(=O)O (stereo unspecified)
9,172 to 174,CC(=O)N1CCc2cc(S(=O)(=O)Cl)ccc21
10,20.5,CCCCCCCCCCCCCC(=O)OCc1ccccc1
11,224,O=C1c2cccc(O)c2C(=O)c2c(O)cc(CO)cc21
12,98.6,NC(=S)c1ccc2occc2c1
13,88,O=C1OC2(Cc3ccccc31)Cc1ccccc12 (stereo unspecified)
14,133,Cn1c(/C(C#N)=C/c2ccc(F)cc2)nc2ccccc21
15,300,O=S(=O)(O)c1cccc2cnccc12
16,134,OCCN(CCO)c1ccc(N=Nc2ccccc2)cc1
17,126,CC1(C)CC(=O)c2c(C(=O)c3ccc(Cl)cc3)noc2C1
18,7,Cc1ccc(N)c(Cl)c1
19,54.5,C[C@H]1C(=O)[C@H]2[C@@H](C[C@H]1C#N)C2(C)C
20,-60,CCCCCCl
21,153 to 159,O=[N+]([O-])c1cc(O)ccc1I
22,257 to 259,N#CCc1c(C#N)c(N)nc(Cl)c1C#N
23,215,[O-][P+](c1ccccc1)(c1ccccc1)C1C2=C(OC3=C1CCc1ccccc13)c1ccccc1CC2

row,melting point [°C],Compound
1,78,ON=C(c1ccccc1)c1ccc(O)cc1
2,151,CCc1oc2ccccc2c1C(=O)c1cc(Br)c(O)c(Br)c1
3,151,NS(=O)(=O)c1ccc(SCCO)c([N+](=O)[O-])c1
4,-101,FC(F)(Cl)CCl
5,203,CNc1c(C=O)c(=O)n(C)c(=O)n1C
6,182 to 183,Cc1csc2ncnc(NN)c12
7,139,O=C(c1cccs1)c1noc(-c2ccc([N+](=O)[O-])cc2)c1S(=O)(=O)c1ccccc1
8,130,CCC(COCCOc1c(I)cc(I)c(NC(C)=O)c1I)C(=O)O (stereo unspecified)
9,218 to 220,FC(F)(F)c1cc(Br)c2nc[nH]c2c1
10,210,O=C(Nc1cc(Cl)cc(Cl)c1O)c1c(O)c(Cl)cc(Cl)c1Cl
11,135 to 136,N#CSCC(=O)c1ccc(Cl)cc1
12,135,Brc1noc2ncccc12
13,144 to 148,Cc1nn(-c2ccccc2)c(Cl)c1C=O
14,200 to 203,O=C(O)c1c[nH]c2ccccc12
15,180,Nc1ccc2ccccc2c1S(=O)(=O)O
16,208 to 210,Cc1cc(C)n2nc(N)c(Cc3ccc(F)cc3)c2n1
17,87.5,Brc1cccc(Br)c1Br
18,135 to 136,Cc1cc(C)n2nc(SCc3ccccc3)nc2n1
19,33.5,CCCCCCCC/C=C\CCCCCCCCCCCC(=O)O
20,118 to 120,CCOc1ccc(-c2nnc3n2NCS3)cc1

row,Compound,melting point [°C]
1,Cc1c([N+](=O)[O-])c(C)c([N+](=O)[O-])c(C(C)(C)C)c1[N+](=O)[O-],110
2,ClC(Cl)c1ccc(C(Cl)Cl)cc1,92 to 93
3,Clc1cc(Cl)c2c(c1Cl)Oc1ccccc1O2,128
4,NC(=O)OCC(O)c1ccccc1 (stereo unspecified),112
5,CCCCCCOC(=O)c1ccccc1C(=O)OCCCCCC,-58
6,C=COCCCl,-70
7,O=[N+]([O-])C=Cc1cc(Cl)ccc1O,148 to 154
8,O=C(Br)C(=O)Br,-19
9,O=[N+]([O-])c1cc2nccnc2cc1[N+](=O)[O-],188 to 191
10,FC(F)(F)c1cnc(N2CCNCC2)c(Cl)c1,65 to 67
11,COc1ccc(CCN)cc1OC,12 to 15
12,N#CC(c1ccccc1)N1CCOCC1 (stereo unspecified),69 to 71
13,C=C1C(C)C2C(Cc3ccccc3)NC(=O)C23OC(=O)C=CC(O)CCCC(C)CC=CC3C1O (stereo unspecified),218 to 223
14,CCC1(CC)C(=O)NC(=S)NC1=O,180
